This note sets out measurements from patent publication US12617747B2, “Cannabinoid analogs and methods for their preparation” (InMed Pharmaceuticals Inc., priority 2018, dated 2026).

This experiment deals with T1, human CB2 receptor (Homo sapiens, UniProt P34972).
T1 construct: HA; expressed in transfected cells
Description: CB2 receptor agonist activity in AtT20 cells stably expressing HA-tagged human CB2 receptors. The class given is cell-based. Particulars: method of Udoh et al. 2019. An excerpt:
The activity of 5-fluorocannabichromene (5F-CBC) was studied in AtT20 cells stably expressing HA-tagged human CB1 and CB2 receptors, as described by Udoh, et al. (“Cannabichromene is a cannabinoid CB2 receptor agonist.” British Journal of Pharmacology, 2019, doi: 10.1111/bph.14815).

T1 sequence (P34972 whole entry): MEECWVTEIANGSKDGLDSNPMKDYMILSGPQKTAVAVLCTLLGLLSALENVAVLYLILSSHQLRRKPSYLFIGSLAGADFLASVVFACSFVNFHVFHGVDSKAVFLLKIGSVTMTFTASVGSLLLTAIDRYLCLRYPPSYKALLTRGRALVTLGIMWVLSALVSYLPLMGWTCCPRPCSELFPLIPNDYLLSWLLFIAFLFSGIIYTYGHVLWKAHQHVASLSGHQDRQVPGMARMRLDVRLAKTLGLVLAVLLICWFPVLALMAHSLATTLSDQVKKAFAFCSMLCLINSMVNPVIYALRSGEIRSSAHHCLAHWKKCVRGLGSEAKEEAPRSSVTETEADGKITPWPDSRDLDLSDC

As usually defined, the EC50 is the midpoint of the concentration-response curve. `CC(C)=CCCC1(C)C=Cc2c(O)cc(CCCCCF)cc2O1` (stereo not shown) [5F-CBC, 7-(5-fluoropentyl)-2-methyl-2-(4-methyl-pent-3-enyl)-2H-chromen-5-ol] yielded an EC50 of 2100 nM. In other words, the single-digit micromolar range.
